Counter-ions that a name gives are not always drawn. Like-named read-outs stand apart in the source and are kept apart here.
Target: T1, CDK8 (CDK8/CycC) (Homo sapiens, UniProt P49336)
T1 construct: purchased Invitrogen PV4402
Test: FRET based Lanthascreen binding competition assay
Summary of the method: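 CDK8 co-expressed with CycC and labelled through biotinylated anti-His antibody and streptavidin-Eu was preincubated with compound for 20 min at RT. An Alexa647 ATP-competitive probe was then added for 60 min at RT in the dark. Probe displacement was read as loss of TR-FRET (excitation 340 nm, emission 650 nm).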

[1] = 5 nM CDK8/CycC, 10 nM Alexa647-Tracer, 1% DMSO, 60 min at RT, read-out: IC50 CDK8 binding

T1 sequence (P49336 whole entry): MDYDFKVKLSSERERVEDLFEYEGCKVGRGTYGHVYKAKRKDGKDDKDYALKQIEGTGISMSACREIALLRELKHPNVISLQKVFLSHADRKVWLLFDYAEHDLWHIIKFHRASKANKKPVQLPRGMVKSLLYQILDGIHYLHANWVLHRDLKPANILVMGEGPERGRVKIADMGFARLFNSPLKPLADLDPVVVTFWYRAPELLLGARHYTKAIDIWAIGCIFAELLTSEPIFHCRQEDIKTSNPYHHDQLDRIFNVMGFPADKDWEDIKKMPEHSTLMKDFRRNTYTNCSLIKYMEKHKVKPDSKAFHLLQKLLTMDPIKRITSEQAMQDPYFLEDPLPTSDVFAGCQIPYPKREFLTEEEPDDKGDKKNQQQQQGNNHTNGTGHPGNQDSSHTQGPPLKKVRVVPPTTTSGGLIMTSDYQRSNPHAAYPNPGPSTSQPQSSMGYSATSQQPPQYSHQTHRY
T1 sequence (P24863 whole entry partner): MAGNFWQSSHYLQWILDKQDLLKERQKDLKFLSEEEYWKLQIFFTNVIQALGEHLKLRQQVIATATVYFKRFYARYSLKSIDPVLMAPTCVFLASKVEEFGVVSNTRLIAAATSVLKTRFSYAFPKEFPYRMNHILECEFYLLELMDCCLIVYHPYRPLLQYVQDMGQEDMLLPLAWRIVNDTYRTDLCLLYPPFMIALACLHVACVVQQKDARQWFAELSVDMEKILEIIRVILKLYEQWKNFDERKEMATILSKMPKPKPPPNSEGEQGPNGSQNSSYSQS

SMILES | IC50 [1] | IC50
Cn1cc(-c2ccc(-c3cncc4ccc(NS(C)(=O)=O)cc34)cc2)cn1 [Compound 98, N-{4-[4-(1-Methyl-1H-pyrazol-4-yl)-phenyl]-isoquinolin-6-yl}-methanesulfonamide] | < 10 nM | 
COCCNc1ccc2cncc(-c3ccc(-c4cnn(C)c4)cc3)c2c1 [Compound 105, (2-Methoxy-ethyl)-{4-[4-(1-methyl-1H-pyrazol-4-yl)-phenyl]-isoquinolin-6-yl}-amine] | < 10 nM | 
Cn1cc(-c2ccc(-c3cncc4ccc(C(=O)O)cc34)cc2)cn1 [Compound 95, 4-(4-(1-methyl-1H-pyrazol-4-yl)phenyl)isoquinoline-6-carboxylic acid hydrochloride] |  | < 10 nM
Cn1cc(-c2ccc(-c3cncc4ccc(-c5nn[nH]n5)nc34)cc2)cn1 [Compound 42, 8-(4-(1-methyl-1H-pyrazol-4-yl)phenyl)-2-(2H-tetrazol-5-yl)-1,6-naphthyridine] | 10 to 100 nM | 
O=C1Cc2ccc(-c3cncc4ccc(C(=O)N5CC(F)(F)C5)cc34)cc2N1 [Compound 146, 6-(6-(3,3-difluoroazetidine-1-carbonyl)isoquinolin-4-yl)indolin-2-one] | 10 to 100 nM | 
COc1ccc(CNC(=O)c2ccc3cncc(-c4ccc(-c5cnn(C)c5)cc4)c3n2)cc1 [Compound 81, N-(4-methoxybenzyl)-8-(4-(1-methyl-1H-pyrazol-4-yl)phenyl)-1,6-naphthyridine-2-carboxamide] | 10 to 100 nM | 
Nc1ncc(-c2ccc3c(c2)NC(=O)C3)c2cc(C(=O)N3CC(F)(F)C3)ccc12 [Compound 154, 6-(1-amino-6-(3,3-difluoroazetidine-1-carbonyl)isoquinolin-4-yl)indolin-2-one] | 10 to 100 nM | 
Cc1nc(-c2ccc(-c3cncc4ccc(C(=O)N5CC(F)(F)C5)cc34)cc2)cn1C [Compound 175, (3,3-Difluoro-azetidin-1-yl)-{4-[4-(1,2-dimethyl-1H-imidazol-4-yl)-phenyl]-isoquinolin-6-yl}-methanone] | 10 to 100 nM | 
Cn1ncc2cc(-c3cncc4ccc(C#N)cc34)ccc21 [Compound 120, 4-(1-methyl-1H-indazol-5-yl)isoquinoline-6-carbonitrile] | 10 to 100 nM | 

The next lines start with the values.

IC50 [1] | IC50 | SMILES
10 to 100 nM |  | CC1CC(=O)N(c2ccc3cncc(-c4ccc(-c5cnn(C)c5)cc4)c3c2)C1 (stereo not drawn) [Compound 111, 4-Methyl-1-{4-[4-(1-methyl-1H-pyrazol-4-yl)-phenyl]-isoquinolin-6-yl}-pyrrolidin-2-one]
101 to 500 nM |  | CC(=O)N1CCN(c2ccc3cncc(-c4ccc(-c5cnn(C)c5)cc4)c3c2)CC1 [Compound 125, 1-(4-{4-[4-(1-Methyl-1H-pyrazol-4-yl)-phenyl]-isoquinolin-6-yl}-piperazin-1-yl)-ethanone]
< 10 nM |  | COC1CN(C(=O)c2ccc3cncc(-c4ccc(-c5cnn(C(C)C)c5)cc4)c3n2)C1 [Compound 153, (8-(4-(1-isopropyl-1H-pyrazol-4-yl)phenyl)-1,6-naphthyridin-2-yl)(3-methoxyazetidin-1-yl)methanone]
< 10 nM |  | CN1c2ccc(-c3cncc4ccc(C(=O)N5CCNCC5)nc34)cc2CS1(=O)=O [Compound 18, [8-(1-Methyl-2,2-dioxo-2,3-dihydro-1H-benzo[c]isothiazol-5-yl)-[1,6]naphthyridin-2-yl]-piperazin-1-yl-methanone]
< 10 nM |  | Cn1cc(-c2ccc(-c3cncc4ccc(NS(C)(=O)=O)nc34)cc2)cn1 [Compound 2, N-(8-(4-(1-Methyl-1H-pyrazol-4-yl)phenyl)-1,6-naphthyridin-2-yl)methanesulfonamide]
101 to 500 nM |  | CN1c2ccc(-c3cncc4ccc(CN)nc34)cc2CS1(=O)=O [Compound 71, C-[8-(1-Methyl-2,2-dioxo-2,3-dihydro-1H-benzo[c]isothiazol-5-yl)-[1,6]naphthyridin-2-yl]-methylamine]
101 to 500 nM |  | Cc1ncc(-c2ccc(-c3cnn(C)c3)cc2)c2nc(C(N)=O)ccc12 [Compound 61, 5-Methyl-8-(4-(1-methyl-1H-pyrazol-4-yl)phenyl)-1,6-naphthyridine-2-carboxamide]
10 to 100 nM |  | O=C(c1ccc2cncc(Br)c2n1)N1CCC[C@H]1c1ccc(Br)cc1 [Compound 89, (S)-(8-bromo-1,6-naphthyridin-2-yl)(2-(4-bromophenyl)pyrrolidin-1-yl)methanone]
< 10 nM |  | CN(O)C(=O)c1ccc2cncc(-c3ccc(-c4cnn(C)c4)cc3)c2n1 [Compound 76, N-Hydroxy-N-methyl-8-(4-(1-methyl-1H-pyrazol-4-yl)phenyl)-1,6-naphthyridine-2-carboxamide]
< 10 nM |  | CN1c2ccc(-c3cncc4ccccc34)cc2CS1(=O)=O [Compound 100, 5-(isoquinolin-4-yl)-1-methyl-1,3-dihydrobenzo[c]isothiazole 2,2-dioxide]
< 10 nM |  | Cn1cc(-c2ccc(-c3cncc4ccc(C(=O)N5CCC5)cc34)cc2)cn1 [Compound 181, azetidin-1-yl(4-(4-(1-methyl-1H-pyrazol-4-yl)phenyl)isoquinolin-6-yl)methanone]
101 to 500 nM |  | Cn1cc(-c2ccc(-c3cncc4ccc(N5C(=O)CCC5=O)cc34)cc2)cn1 [Compound 126, 1-{4-[4-(1-Methyl-1H-pyrazol-4-yl)-phenyl]-isoquinolin-6-yl}-pyrrolidine-2,5-dione]

Reference: patent publication US20160016951A1 (Merck Patent GmbH, priority 2014, published 2016)
